In PMC2248166, “Quantitative peptide binding motifs for 19 human and mouse MHC class I molecules derived using positional scanning combinatorial peptide libraries” (Immunome Research, 2008):

Key:
Assay type in all cases: binding
HLA A*3001 = HLA A*3001 (Homo sapiens, UniProt P04439, D140H/D185E/E176W/F33S/G80R/H175R/K168Q/R138E/R41S); assay: biochemical
HLA B*3501 = HLA B*3501 (Homo sapiens, UniProt P01889, A329T/A93T/A95T/C349S/D201E/D98Y/E176V/E187L/E204Q/E69T/I218V/K202T/L119I/Q94N/R155S/R180L/S121R/S35A/S48A/T118I/V127L/V306I/V36M/Y140S/Y91F)
HLA B*1503 = HLA B*1503 (Homo sapiens, UniProt P01889, A329T/A93T/A95T/C349S/D201E/D98Y/E187L/E204Q/K202T/N87E/Q94N/R155S/R180L/S121R/S35A/V306I/V36M/Y140S/Y91S); assay: biochemical
HLA A*6802 = HLA A*6802 (Homo sapiens, UniProt P04439, A269V/D140Y/D185E/E176V/E277Q/E87N/F33Y/G231S/I121R/I166T/I218V/L180W/L300P/L318F/N151K/P208A/P217A/Q86R/R138H/R169H/S129P/T345S/V36M)
HLA B*1501 = HLA B*1501 (Homo sapiens, UniProt P01889, A329T/A93T/A95T/C349S/D201E/D98Y/E187L/E204Q/E69M/E70A/K202T/N87E/Q94N/R155S/R180W/S121R/S35A/S48A/V306I/V36M/Y140S/Y91S); assay: biochemical
H-2 K^k = H-2 K^k (Mus musculus, UniProt P04223)
Chain of H-2 K^k (P01887 21-119): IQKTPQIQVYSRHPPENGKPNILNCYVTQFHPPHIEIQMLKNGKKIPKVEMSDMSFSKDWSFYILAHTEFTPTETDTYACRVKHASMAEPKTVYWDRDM
Chain of H-2 K^k (P04223 22-369): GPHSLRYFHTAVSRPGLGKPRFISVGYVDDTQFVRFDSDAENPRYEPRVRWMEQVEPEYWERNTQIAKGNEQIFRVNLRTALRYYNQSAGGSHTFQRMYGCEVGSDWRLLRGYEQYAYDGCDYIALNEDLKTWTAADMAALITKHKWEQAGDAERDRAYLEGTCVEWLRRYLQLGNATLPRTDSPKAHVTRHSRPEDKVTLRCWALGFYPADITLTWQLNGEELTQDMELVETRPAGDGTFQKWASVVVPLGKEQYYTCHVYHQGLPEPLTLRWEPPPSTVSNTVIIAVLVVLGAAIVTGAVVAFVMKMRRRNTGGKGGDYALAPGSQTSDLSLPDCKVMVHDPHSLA

HLA B*5401 = HLA B*5401 (Homo sapiens, UniProt P01889, A329T/C349S/D138N/D201E/E176V/E187T/E204Q/E69G/I76V/K202T/L119W/R155S/R180L/S121T/S35A/S48A/V127L/V306I/V36M/Y140L)
HLA B*0801 = HLA B*0801 (Homo sapiens, UniProt P01889, A93T/A95T/D138N/E176V/E187T/K202T/Q94N/R180D/S35A/V36M/Y33D/Y91F); assay: biochemical
HLA B*5802 = HLA B*5802 (Homo sapiens, UniProt P01889, A329T/C349S/D201E/D98Y/E176V/E187L/E204Q/E69T/G107R/I218V/I90N/K202T/L105A/N104I/N87E/Q89R/Q94S/R106L/R155S/R180L/R86G/S101N/S121W/S35A/S48A/V127L/V306I/V36M/Y140S/Y91M)
HLA A*3201 = HLA A*3201 (Homo sapiens, UniProt P04439, A270S/D101S/D185E/E176V/E277Q/F133L/G103R/G107R/G231S/H175R/I121M/I218V/I322F/K168Q/L105A/L300P/L318F/M331R/P208A/P217A/Q94H/R106L/R138Q/S129P/T104I/T323A/T345S/V100E/V321M/V358M); assay: biochemical
HLA B*5301 = HLA B*5301 (Homo sapiens, UniProt P01889, A329T/A93T/A95T/C349S/D201E/D98Y/E176V/E187L/E204Q/E69T/G107R/I218V/K202T/L105A/L119I/N104I/Q94N/R106L/R155S/R180L/S101N/S121R/S35A/S48A/T118I/V127L/V306I/V36M/Y140S/Y91F)
HLA B*5801 = HLA B*5801 (Homo sapiens, UniProt P01889, A329T/C349S/D201E/D98Y/E176V/E187L/E204Q/E69T/G107R/I218V/I90N/K202T/L105A/L119I/N104I/N87E/Q89R/Q94S/R106L/R155S/R180L/R86G/S101N/S121R/S35A/S48A/T118I/V127L/V306I/V36M/Y140S/Y91M)
HLA B*5101 = HLA B*5101 (Homo sapiens, UniProt P01889, A329T/A93T/A95T/C349S/D138N/D201E/D98Y/E187L/E204Q/E69T/G107R/I218V/K202T/L105A/L119W/N104I/Q94N/R106L/R155S/R180L/S101N/S121T/S35A/S48A/V306I/V36M/Y195H/Y91F)
H-2 D^d = H-2 D^d (Mus musculus, UniProt P01900)
Chain of H-2 D^d (P01900 whole entry, looked up): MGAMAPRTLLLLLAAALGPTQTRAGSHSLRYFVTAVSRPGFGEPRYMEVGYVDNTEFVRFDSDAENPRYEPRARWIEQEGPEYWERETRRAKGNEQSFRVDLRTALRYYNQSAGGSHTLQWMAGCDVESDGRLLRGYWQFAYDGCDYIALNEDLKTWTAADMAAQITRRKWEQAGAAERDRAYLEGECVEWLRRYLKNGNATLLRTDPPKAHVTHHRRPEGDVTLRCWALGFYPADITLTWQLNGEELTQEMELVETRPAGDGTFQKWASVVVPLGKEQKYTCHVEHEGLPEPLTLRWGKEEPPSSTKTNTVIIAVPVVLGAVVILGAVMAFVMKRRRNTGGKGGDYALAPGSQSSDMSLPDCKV

H-2 K^d = H-2 K^d (Mus musculus, UniProt P01902)
Chain of H-2 K^d (P01887 21-119): as the sequence (P01887 21-119) above
Chain of H-2 K^d (P01902 22-368): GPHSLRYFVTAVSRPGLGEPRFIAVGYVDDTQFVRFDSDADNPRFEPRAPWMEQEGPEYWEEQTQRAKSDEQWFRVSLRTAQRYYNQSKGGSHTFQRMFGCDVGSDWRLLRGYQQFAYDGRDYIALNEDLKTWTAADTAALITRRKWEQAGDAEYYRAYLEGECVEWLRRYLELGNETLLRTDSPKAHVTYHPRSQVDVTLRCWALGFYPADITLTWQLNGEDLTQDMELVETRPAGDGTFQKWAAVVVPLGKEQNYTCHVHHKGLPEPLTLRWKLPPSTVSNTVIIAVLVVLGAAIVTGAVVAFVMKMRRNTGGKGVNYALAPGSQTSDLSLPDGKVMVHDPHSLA

H-2 D^b = H-2 D^b (Mus musculus, UniProt P01899)
Chain of H-2 D^b (P01887 21-119): as the sequence (P01887 21-119) above
Chain of H-2 D^b (P01899 25-362): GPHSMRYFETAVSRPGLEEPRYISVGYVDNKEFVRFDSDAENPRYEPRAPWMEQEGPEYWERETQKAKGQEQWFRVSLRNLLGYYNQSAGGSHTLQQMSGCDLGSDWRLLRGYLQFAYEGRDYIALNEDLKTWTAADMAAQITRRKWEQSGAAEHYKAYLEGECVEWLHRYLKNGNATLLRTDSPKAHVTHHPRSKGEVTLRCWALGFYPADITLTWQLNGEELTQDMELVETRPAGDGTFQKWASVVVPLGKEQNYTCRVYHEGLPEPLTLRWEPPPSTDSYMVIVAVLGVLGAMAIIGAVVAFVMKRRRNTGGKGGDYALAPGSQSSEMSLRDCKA

Sequence	Normalized average relative binding affinity(ARB) (HLA A*3001)	Normalized average relative binding affinity(ARB) (HLA B*3501)	Normalized average relative binding affinity(ARB) (HLA B*1503)	Normalized average relative binding affinity(ARB) (HLA A*6802)	Normalized average relative binding affinity(ARB) (HLA B*1501)	Normalized average relative binding affinity(ARB) (H-2 K^k)	Normalized average relative binding affinity(ARB) (HLA B*5401)	Normalized average relative binding affinity(ARB) (HLA B*0801)	Normalized average relative binding affinity(ARB) (HLA B*5802)	Normalized average relative binding affinity(ARB) (HLA A*3201)	Normalized average relative binding affinity(ARB) (HLA B*5301)	Normalized average relative binding affinity(ARB) (HLA B*5801)	Normalized average relative binding affinity(ARB) (HLA B*5101)	Normalized average relative binding affinity(ARB) (H-2 D^d)	Normalized average relative binding affinity(ARB) (H-2 K^d)	Normalized average relative binding affinity(ARB) (H-2 D^b)
XXXXXMXXX [3064.0111]	0.18	0.18	0.43	0.14	0.44	0.36	0.43	0.031	0.24	0.44	0.23	0.41	0.52	0.48	0.31	0.52
XXXXXXTXX [3064.0137]	0.11	0.27	0.16	0.60	0.49	0.061	0.33	0.46	0.057	0.14	0.081	0.28	0.58	0.029	1.0	0.67
XXXPXXXXX [3064.0073]	0.59	0.11	0.67	0.37	0.22	0.41	0.13	0.34	0.50	0.095	0.023	1.0	0.55	0.15	0.48	0.15
XXXFXXXXX [3064.0065]	1.0	0.10	0.41	0.74	0.42	0.38	0.31	0.55	0.45	1.0	0.21	0.31	0.64	0.96	0.098	0.38
XXXXXXCXX [3064.0122]	0.21	0.18	0.094	0.11	0.78	0.094	0.16	0.44	0.024	0.11	0.17	0.082	0.28	0.048	0.12	0.28
XXXXXIXXX [3064.0108]	0.27	0.28	0.41	0.38	0.53	0.55	0.81	0.048	0.072	0.83	0.41	0.67	0.74	0.46	0.36	0.77
